# Experimental data reported in paper PMC8698959, “A Combination of Structural, Genetic, Phenotypic and Enzymatic Analyses Reveals the Importance of a Predicted Fucosyltransferase to Protein O-Glycosylation in the Bacteroidetes” (Biomolecules, 2021).
# Legend:
# [1] = molecular target: T1, rBF4306 (FucT) (Bacteroides fragilis, UniProt Q5L7H9); assay: TLC and ESI-MS of fucosylated product; format: biochemical; conditions: 5 mM MgCl2, 5 mM MnCl2, pH 7.4, 37 °C, overnight
# T1 construct: gene BF9343_4192; tag kept; partly degraded
# T1 sequence (Q5L7H9 entry or part of it): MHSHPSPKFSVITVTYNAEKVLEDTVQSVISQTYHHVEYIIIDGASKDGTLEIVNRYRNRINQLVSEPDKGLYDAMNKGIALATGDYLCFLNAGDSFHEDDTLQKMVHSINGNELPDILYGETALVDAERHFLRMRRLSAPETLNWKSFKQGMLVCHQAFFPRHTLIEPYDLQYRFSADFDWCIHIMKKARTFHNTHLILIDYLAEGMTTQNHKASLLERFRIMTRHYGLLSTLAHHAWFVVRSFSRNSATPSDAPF
# Text: (§1) All three enzymes transferred L-Fuc to pNP-α-Gal
# [2] = molecular target: T2, rPhep_4048 (FucT) (Pedobacter heparinus, UniProt C6XWF0); assay: TLC and ESI-MS of fucosylated product; format: biochemical; conditions: donor; acceptor pNP-α-D-Gal 8 mM, 5 mM MgCl2, 5 mM MnCl2, pH 7.4, 37 °C, overnight
# T2 construct: gene Phep_4048; tag kept; partly degraded
# T2 sequence (C6XWF0 1-252): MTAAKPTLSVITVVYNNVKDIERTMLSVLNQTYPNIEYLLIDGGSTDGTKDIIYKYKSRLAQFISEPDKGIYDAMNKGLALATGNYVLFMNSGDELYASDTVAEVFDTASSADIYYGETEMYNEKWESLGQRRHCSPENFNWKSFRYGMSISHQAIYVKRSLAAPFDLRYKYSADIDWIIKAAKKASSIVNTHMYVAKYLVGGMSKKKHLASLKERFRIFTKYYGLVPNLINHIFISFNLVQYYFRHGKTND
# Text: as §1
SMILES,"TLC and ESI-MS of fucosylated product ([1]; 2 mM GDP-L-Fuc, 8 mM acceptor)",TLC and ESI-MS of fucosylated product [2],"TLC and ESI-MS of fucosylated product ([1]; donor, acceptor pNP-α-D-Glc 8 mM)"
O=[N+]([O-])c1ccc(O[C@H]2O[C@H](CO)[C@@H](O)[C@H](O)[C@H]2O)cc1 [pNP-α-D-Glc],rBF4306 demonstrated very low activity with all substrates; pNP-α-Glc was the best substrate,–,–
C[C@@H]1O[C@H](OP(=O)(O)OP(=O)(O)OC[C@H]2O[C@@H](n3cnc4c(=O)[nH]c(N)nc43)[C@H](O)[C@@H]2O)[C@@H](O)[C@H](O)[C@@H]1O [GDP-L-Fuc],–,with GDP-L-Fuc serving as the Fuc donor. All three enzymes transferred L-Fuc to pNP-α-Gal,with GDP-L-Fuc serving as the Fuc donor. All three enzymes transferred L-Fuc to pNP-α-Gal
